Literature values, collected in patent US20050025804A1, “Reduction of adverse inflammation” (priority 2003, published 2005).

Details: peroxynitrite decomposition catalyst

Row | Compound | rate constant
1 | CC(=O)[O-].Cc1c(-c2c3nc(c(-c4c(C)c(S(=O)(=O)[O-])c(C)c(S(=O)(=O)[O-])c4C)c4ccc([n-]4)c(-c4c(C)c(S(=O)(=O)[O-])c(C)c(S(=O)(=O)[O-])c4C)c4nc(c(-c5c(C)c(S(=O)(=O)[O-])c(C)c(S(=O)(=O)[O-])c5C)c5ccc2[n-]5)C=C4)C=C3)c(C)c(S(=O)(=O)[O-])c(C)c1S(=O)(=O)[O-].[Fe+3].[Na+].[Na+].[Na+].[Na+].[Na+].[Na+].[Na+].[Na+] [Fe(III)TMPS, acetato-5,10,15,20-tetrakis(3,5-disulfonatomesityl) porphyrin iron (III) octasodium salt] | 2.06e+06 M⁻¹ s⁻¹
2 | acetato (5,10,15,20-tetrakis(N-methyl-4-pyridyl)porphinato) iron (III) tetratosylate [Fe(III)TMPyP] | 2.75e+06 M⁻¹ s⁻¹
